Measurements taken from patent publication US11388901B2, “Herbicidal azines” (BASF SE, priority 2017, dated 2022).

Assays:
Type in all cases: in vivo
Amaranthus retroflexus [1] = assay: greenhouse pre-emergence herbicidal test; settings: scale 0 to 100
From the text: The seeds of the test plants were sown separately for each species. For the pre-emergence treatment, the active ingredients, which had been suspended or emulsified in water, were applied directly after sowing by means of finely distributing nozzles. The containers were irrigated gently to promote germination and growth and subsequently covered with transparent plastic hoods until the plants had rooted. This cover caused uniform germination of the test plants, unless this had been impaired by the active ingredients. […] The test period extended over 2 to 4 weeks. During this time, the plants were tended, and their response to the individual treatments was evaluated. Evaluation was carried out using a scale from 0 to 100. 100 means no emergence of the plants, or complete destruction of at least the aerial moieties, and 0 means no damage, or normal course of growth. A moderate herbicidal activity is given at values of at least 60, a good herbicidal activity is given at values of at least 70, and a very good herbicidal activity is given at values of at least 85. The plants used in the greenhouse experiments were of the following species: […]

Echinocloa crus-galli [2] = assay: greenhouse pre-emergence herbicidal test; settings: 250 g/ha, scale 0 to 100
From the text: (§1) The culture containers used were plastic flowerpots containing loamy sand with approximately 3.0% of humus as the substrate. The seeds of the test plants were sown separately for each species.
(§2) For the pre-emergence treatment, the active ingredients, which had been suspended or emulsified in water, were applied directly after sowing by means of finely distributing nozzles.
(§3) The containers were irrigated gently to promote germination and growth and subsequently covered with transparent plastic hoods until the plants had rooted. This cover caused uniform germination of the test plants, unless this had been impaired by the active ingredients.
(§4) Depending on the species, the plants were kept at 10-25° C. or 20-35° C., respectively.
(§5) The test period extended over 2 to 4 weeks. During this time, the plants were tended, and their response to the individual treatments was evaluated.
(§6) Evaluation was carried out using a scale from 0 to 100. 100 means no emergence of the plants, or complete destruction of at least the aerial moieties, and 0 means no damage, or normal course of growth. A moderate herbicidal activity is given at values of at least 60, a good herbicidal activity is given at values of at least 70, and a very good herbicidal activity is given at values of at least 85.
(§7) The plants used in the greenhouse experiments were of the following species: […]

Setaria faberi = assay: greenhouse pre-emergence herbicidal test; settings: scale 0 to 100
From the text: as §1, §2, §3, §4, §5, §6, §7

Alopercurus myosuroides = assay: greenhouse pre-emergence herbicidal test; settings: scale 0 to 100
From the text: as §1, §2, §3, §4, §5, §6, §7

Apera spica-venti = assay: greenhouse pre-emergence herbicidal test; settings: scale 0 to 100
From the text: as §1, §2, §3, §4, §5, §6, §7

Lolium multiflorum = assay: greenhouse pre-emergence herbicidal test; settings: 250 g/ha, scale 0 to 100
From the text: as §1, §2, §3, §4, §5, §6, §7

Abutilon theophrasti [3] = assay: greenhouse pre-emergence herbicidal test; settings: 250 g/ha, scale 0 to 100
From the text: as §1, §2, §3, §4, §5, §6, §7

Abutilon theophrasti [4] = assay: greenhouse post-emergence herbicidal test; settings: 250 g/ha, scale 0 to 100
From the text: as §1
(§8) For the post-emergence treatment, the test plants were first grown to a height of 3 to 15 cm, depending on the plant habit, and only then treated with the active ingredients which had been suspended or emulsified in water. For this purpose, the test plants were either sown directly and grown in the same containers, or they were first grown separately as seedlings and transplanted into the test containers a few days prior to treatment.
as §4, §5, §6, §7

Amaranthus retroflexus [5] = assay: greenhouse post-emergence herbicidal test; settings: 250 g/ha, scale 0 to 100
From the text: as §1, §8, §4, §5, §6, §7

Setaria viridis = assay: greenhouse post-emergence herbicidal test; settings: 250 g/ha, scale 0 to 100
From the text: as §1, §8, §4, §5, §6, §7

Echinocloa crus-galli [6] = assay: greenhouse post-emergence herbicidal test; settings: 250 g/ha, scale 0 to 100
From the text: as §1, §8, §4, §5, §6, §7

Structure (SMILES)	herbicidal activity (Amaranthus retroflexus [1]; 250 g/ha) [%]	herbicidal activity (Echinocloa crus-galli [2]) [%]	herbicidal activity (Setaria faberi; 250 g/ha) [%]	herbicidal activity (Alopercurus myosuroides; 250 g/ha) [%]	also measured
CC(F)c1nc(N)nc(Nc2c(F)ncc(F)c2Cl)n1 (racemic) [Example 8]	100	90	100	–	–
CCCC(F)c1nc(N)nc(Nc2c(F)ncc(F)c2Cl)n1 (racemic) [Example 13]	100	100	100	–	–
Nc1nc(Nc2c(F)ncc(F)c2Cl)nc(C(F)C2CCCC2)n1 (racemic) [Example 20]	100	–	100	100	–
CC(C)(C)c1nc(N)nc(Nc2c(F)ncc(F)c2Cl)n1 [Example 2, 6-tert-butyl-N4-(4-chloro-2,5-difluoro-3-pyridyl)-1,3,5-triazine-2,4-diamine]	–	–	–	–	herbicidal activity (Amaranthus retroflexus [1]; 125 g/ha): 100%; herbicidal activity (Apera spica-venti; 125 g/ha): 90%
CC(C)(F)c1nc(N)nc(Nc2c(F)ncc(F)c2Cl)n1 [Example 4]	100	100	–	100	–
Nc1nc(Nc2c(F)ncc(F)c2Cl)nc(C2CCCC2)n1 [Example 6]	90	–	–	80	–
CC(C)(C)c1nc(N)nc(Nc2c(F)ncc(F)c2Cl)n1 [Example 7, 6-tert-butyl-N4-(4-chloro-2,5-difluoro-3-pyridyl)-1,3,5-triazine-2,4-diamine]	90	–	95	98	–
CC1(c2nc(N)nc(Nc3c(F)ncc(F)c3Cl)n2)CCC1 [Example 9]	100	100	–	100	–
COC1(c2nc(N)nc(Nc3c(F)ncc(F)c3Cl)n2)CCCC1 [Example 10]	100	–	–	100	herbicidal activity (Lolium multiflorum): 95%
Nc1nc(Nc2c(F)ncc(F)c2Cl)nc(C2(F)CCCCC2)n1 [Example 11]	100	–	100	100	–
Nc1nc(Nc2c(F)ncc(F)c2Cl)nc(C2(F)CCCC2)n1 [Example 12]	100	98	100	–	–
CC1(c2nc(N)nc(Nc3c(F)ncc(F)c3Cl)n2)CCCC1 [Example 14]	85	–	–	–	–
Nc1nc(Nc2c(F)ncc(F)c2Cl)nc(C2(F)CC=CC2)n1 [Example 19]	100	100	100	–	–
Nc1nc(Nc2c(F)ncc(F)c2Cl)nc(C2(Cl)CCCC2)n1 [Example 21]	100	–	95	–	–
CC1CCC(c2nc(N)nc(Nc3c(F)ncc(F)c3Cl)n2)CC1 (centres unmarked) [Example 23]	95	–	–	–	–
CC(C)(C#N)c1nc(N)nc(Nc2c(F)ncc(F)c2Cl)n1 [Example 28]	100	–	–	–	–
Nc1nc(Nc2c(F)ncc(F)c2Cl)nc(C2(F)CC2)n1 [Example 31]	100	100	–	100	–
Cc1nc(F)c(Nc2nc(N)nc(C(C)(C)F)n2)c(Cl)c1F [Example 32, N4-(4-Chloro-2,5-difluoro-6-methyl-3-pyridyl)-6-(1-fluoro-1-methyl-ethyl)-1,3,5-triazine-2,4-diamine]	100	85	–	90	–
CC1(c2nc(N)nc(Nc3c(F)ncc(F)c3Cl)n2)CC1 [Example 33]	98	–	–	–	–

Structure (SMILES)	herbicidal activity (Amaranthus retroflexus [1]; 250 g/ha) [%]	herbicidal activity (Echinocloa crus-galli [2]) [%]	herbicidal activity (Setaria faberi; 250 g/ha) [%]	herbicidal activity (Alopercurus myosuroides; 250 g/ha) [%]	also measured
CC(C)(F)c1nc(N)nc(Nc2c(F)ncc(F)c2Br)n1 [Example 35]	100	100	–	100	–
CC(C)(Cl)c1nc(N)nc(Nc2c(F)ncc(F)c2Cl)n1 [Example 36]	100	–	100	100	–
CCCC(F)(F)c1nc(N)nc(Nc2c(F)ncc(F)c2Cl)n1 [Example 37]	100	–	100	100	–
CC(C)CC(F)(F)c1nc(N)nc(Nc2c(F)ncc(F)c2Cl)n1 [Example 38]	100	–	90	–	–
CC(C)(CO)c1nc(N)nc(Nc2c(F)ncc(F)c2Cl)n1 [Example 40]	100	–	95	90	–
CC(C)(F)c1nc(N)nc(Nc2c(F)ncc(F)c2I)n1 [Example 41]	100	–	100	98	–
Nc1nc(Nc2c(F)ncc(F)c2Br)nc(C2(F)CCCC2)n1 [Example 43]	100	–	100	100	–
CCCc1nc(F)c(Nc2nc(N)nc(C(C)(C)F)n2)c(Cl)c1F [Example 44]	100	–	–	–	–
CCCC(F)c1nc(N)nc(Nc2c(F)ncc(F)c2Br)n1 (centres unmarked) [Example 46]	100	–	100	98	–
Nc1nc(Nc2c(Cl)ccnc2Cl)nc(C2(F)CCCC2)n1 [Example 47]	100	–	100	–	herbicidal activity (Lolium multiflorum): 100%
C#CC(C)(F)c1nc(N)nc(Nc2c(F)ncc(F)c2Cl)n1 (centres unmarked) [Example 48]	100	98	100	–	–
Nc1nc(Nc2c(F)ncc(F)c2Br)nc(C2(F)CCCCC2)n1 [Example 51]	100	–	100	100	–
CCC(F)(CC)c1nc(N)nc(Nc2c(F)ncc(F)c2Br)n1 [Example 52]	100	100	100	–	–
Cc1ccnc(Cl)c1Nc1nc(N)nc(C(C)(C)F)n1 [Example 53]	100	–	95	–	herbicidal activity (Abutilon theophrasti [3]): 100%; herbicidal activity (Abutilon theophrasti [4]): 80%; herbicidal activity (Amaranthus retroflexus [5]): 98%
Cc1ccnc(F)c1Nc1nc(N)nc(C2(F)CCCC2)n1 [Example 54]	100	–	100	–	herbicidal activity (Apera spica-venti; 250 g/ha): 98%; herbicidal activity (Setaria viridis): 80%
N#Cc1ccnc(Cl)c1Nc1nc(N)nc(C2(F)CCCC2)n1 [Example 60]	98	85	–	–	herbicidal activity (Apera spica-venti; 250 g/ha): 95%; herbicidal activity (Abutilon theophrasti [4]): 95%; herbicidal activity (Amaranthus retroflexus [5]): 80%
Nc1nc(Nc2c(F)ncc(F)c2Br)nc(C(F)C2CCCC2)n1 (centres unmarked) [Example 61]	100	–	100	90	–
CC(C)(F)c1nc(N)nc(Nc2c(F)nc(F)c(F)c2OCC(F)(F)F)n1 [Example 65]	100	–	–	–	herbicidal activity (Apera spica-venti; 250 g/ha): 100%; herbicidal activity (Abutilon theophrasti [4]): 100%; herbicidal activity (Amaranthus retroflexus [5]): 100%; herbicidal activity (Echinocloa crus-galli [6]): 95%
Nc1nc(Nc2c(F)nc(F)c(F)c2Cl)nc(C2(F)CCCC2)n1 [Example 69]	–	–	–	–	herbicidal activity (Amaranthus retroflexus [1]; 125 g/ha): 100%; herbicidal activity (Alopercurus myosuroides; 125 g/ha): 100%; herbicidal activity (Setaria faberi; 125 g/ha): 100%
